What is called IC50 is the concentration needed to halve the response being measured.

One experiment relates to Nitrosospira multiformis. The experiment can be described thus: Nitrification inhibition assay with Nitrosospira multiformis (nitrite level after 24 h). It is filed as cell-based. The conditions noted are these: Nitrosospira multiformis. Here is the method: (§1) The compounds of formula (I) and (II) and (III)/(IV) were tested for their nitrification inhibition effect in two screens, using assays with the nitrifying bacteria N. europaea and N. multiformis. In practice, ammonium and candidate nitrification inhibitors (at 100 μM) were added to a dense bacterial culture in multiwell culture plates and after 24 h of incubation, the nitrite level was measured. To normalize for differences between batches of cultures and multiwell culture plates, for each well a relative nitrification was calculated that was normalized towards both the negative and positive controls (see “Material and Methods” below for full details).
(§2) Nitrite (NO2−) was measured using the Griess reagent (Product number: G4410, Griess reagent (modified), Sigma-Aldrich). Equal volumes of the sample or a diluted sample and the Griess reagent were mixed a transparent flat bottom multi-well plate and incubated in the dark at room temperature for 10 minutes. Absorbance values at 540 nm were measured spectrophotometrically (EnVision, Perkin Elmer®) and used to calculate the [NO2−] by use of a standard curve.
Cultures were first 5 times overconcentrated in fresh 181-medium by centrifugation (4000 rpm, 15 min, 5° C.) in 50 mL centrifuge tubes (Cat. No. 430829, CentriStar™ Conical Centrifuge Tubes, Corning®). Per batch, all the cultures were pooled in one sterile Schott bottle and subsequently dispensed in 384-well plates (Cat. No. 781086, CELLSTAR® plate, Greiner BioOne; 50 μl/well) by use of a dispenser (Multidrop™ Combi Reagent Dispenser, Thermo Scientific™) that was first flushed with 181-medium. 0.5 μl of 99.99% DMSO (negative control—final concentration […] was added to the outer two columns on the left side of the plate and 0.5 μl of 10 mM DMP (3,4-dimethylpyrazole, positive control—final concentration 100 μM) was added to the outer two columns on the right side manually. Finally, 0.5 μl of candidate nitrification inhibitors (5 mM stock solutions in 99.99% DMSO—final concentration 50 μM) were added to the central wells using a pin tool on a Tecan robot (Freedom EVO®, Tecan). In between additions, the pins were washed in sequence with 99.5% DMSO, MilliQ water and 100% ethanol and air-dried. All plates were separately wrapped in Parafilm. Stacks of 4 plates were put on top of a 96-well plate filled with 100 μl MilliQ per well, covered with aluminum foil and shaken (±150 rpm) at 30° C. 24 h later, NO2− production was assessed. For this, the samples were first 100 times diluted by pipetting 3 μl of samples into 300 μl fresh growth medium in intermediate plates (Cat. No. 353077, Falcon® 96-well Clear Round Bottom Microplate, Corning®) to then mix 15 μl of the diluted samples with 15 μl Griess reagent in the wells of a transparent, flat bottom 384-well plate (Cat. No. X^7001, Low Profile Microplate, Molecular Devices) that was measured spectrophotometrically at 540 nm (EnVision, Perkin Elmer®).
(§3) To assess the efficacy of the compounds (in terms of nitrification inhibition) and to enable comparison between plates and batches of cultures, we calculated the relative nitrification. More in detail, all nitrite results were normalized towards both a negative control, containing no compound, and a positive control, containing the benchmark (100 μM DMP), using Equation 1. This normalization was done per multi-well plate and each plate contained 32 positive and 32 negative controls.
IC50 values, that is the concentration that inhibits 50% of the nitrification, were calculated after fitting a logistic curve to 8-point dose response data, using doses between 2 and 100 μM with 1.75 fold steps. If a concentration of 2 μM already inhibited nitrification, the IC50 value could not be calculated. In that case, IC50 values represent the dose that gives inhibition closest to 50%.
The compounds of formula (I) and (II) were tested for their nitrification inhibition effect in two screens, using assays with the nitrifying bacteria N. europaea and N. multiformis. […]
The compound `CSC1=NCCO1` [Example 41] gave an IC50 of over 100 µM.

The experiment is the same for the next values; noted with them: Nitrosospira multiformis, 24 h, read-out: Nitrification at tested concentration (0 = maximum activity).
Turning to `CSC1=NCCO1` [Example 41], the activity at 100 µM was found to be 68%.

Still in this experiment, the particulars now being: Nitrosospira multiformis; 8-point dose response, 2 to 100 μM; read-out: IC50.
Regarding `Oc1csc(=S)[nH]1` [Example 31], the IC50 was found to be 16 µM.

Turning to `CSc1nc(Br)cs1` [Example 32], the IC50 was over 100 µM.

Regarding `CSc1ncc(Br)s1` [Example 33], the IC50 was over 100 µM.

In the case of `S=c1[nH]c(C2CC2)cs1` [Example 34], the IC50 was 11 µM.

In the case of `Cc1[nH]c(=S)sc1C` [Example 35], the IC50 amounted to 3 µM.

Turning to `S=c1[nH]c(C2CCCCC2)cs1` [Example 36], the IC50 came to 49 µM.

As to `NCCCSc1nccs1` [Example 37], the IC50 worked out at 44 µM.

On to `Cc1csc(SC2CCCCC2)n1` [Example 38], for which the IC50 is over 100 µM.

On to `CSc1ncco1` [Example 39], for which the IC50 is over 100 µM.

For `S=c1[nH]cco1` [Example 40], the IC50 came to 3 µM.

As to `S=C1NC(c2ccccc2)CO1` (stereo not drawn) [Example 42], the IC50 is under 57 µM.

On to `CC1(C)COC(=S)N1` [Example 43], for which the IC50 was 20 µM.

As to `C=CC1CNC(=S)O1` (stereo not drawn) [Example 44], the IC50 was determined as 24 µM.

The same experiment, now with this note: Nitrosospira multiformis; tested concentration 100 μM; 24 h; normalized to DMSO (100%) and 100 μM DMP (0%); read-out: Nitrification at tested concentration (0 = maximum activity).
Consider `Oc1csc(=S)[nH]1` [Example 31], for which the activity at 100 µM was found to be 11%.

Take `CSc1nc(Br)cs1` [Example 32]: the activity at 100 µM was found to be 75%.

`CSc1ncc(Br)s1` [Example 33]: the activity at 100 µM turned out to be 64%.

Take `S=c1[nH]c(C2CC2)cs1` [Example 34]: the activity at 100 µM was 0%.

As for `Cc1[nH]c(=S)sc1C` [Example 35], the activity at 100 µM came out at 0%.

For `S=c1[nH]c(C2CCCCC2)cs1` [Example 36], the activity at 100 µM is 15%.

`NCCCSc1nccs1` [Example 37]: the activity at 100 µM was determined as 7%.

For the compound `Cc1csc(SC2CCCCC2)n1` [Example 38], the activity at 100 µM came out at 53%.

Consider `CSc1ncco1` [Example 39], for which the activity at 100 µM was found to be 52%.

With `S=c1[nH]cco1` [Example 40], the activity at 100 µM came to 0%.

Turning to `S=C1NC(c2ccccc2)CO1` (stereo not drawn) [Example 42], the activity at 100 µM is 12%.

Consider `CC1(C)COC(=S)N1` [Example 43], for which the activity at 100 µM was 0%.

As for `C=CC1CNC(=S)O1` (stereo not drawn) [Example 44], the activity at 100 µM is 0%.

In the next experiment the test system is Nitrosomonas europaea. The experiment can be described thus: Nitrification inhibition assay with Nitrosomonas europaea (nitrite level after 24 h). The format is cell-based. The conditions noted are these: Nitrosomonas europaea. Here is the method: as §1, §2
To prepare a high-throughput nitrification inhibition assay using N. europaea, late-log phase cultures were subcultivated two days before the assay. Just before the assay, the cultures were 5 times overconcentrated with fresh growth medium after centrifugation (4000 rpm, 15 min, 5° C.) in 50 mL centrifuge tubes (Cat. No. 430829, CentriStar™ Conical Centrifuge Tubes, Corning®). Per batch, all the cultures were pooled in one sterile Schott bottle and subsequently dispensed into 384-well plates (Cat. No. 781086, CELL-STAR® plate, Greiner Bio-One; 50 μl/well) by use of a dispenser (Multidrop™ Combi Reagent Dispenser, Thermo Scientific™) that was first flushed with growth medium. Specifically for the high-throughput screen for new nitrification inhibitors, 0.5 μl of 99.99% DMSO (negative control—final concentration 1%) was added to the outer two columns on the left side of the plate and 0.5 μl of 10 mM DMP (3,4-dimethylpyrazole, positive control—final concentration 100 μM) was added to the outer two columns on the right side manually. Finally, 0.5 μl of candidate nitrification inhibitors (5 mM stock solutions in 99.99% DMSO—final concentration 50 μM) were added to the central wells using a pin tool on a Tecan robot (Freedom EVO®, Tecan). In between additions, the pins were washed in sequence with 99.5% DMSO, MilliQ water and 100% ethanol and air-dried. All plates were separately wrapped in Parafilm. Stacks of 4 plates were put on top of a 96-well plate filled with 100 μl MilliQ per well, covered with aluminum foil and shaken at 150 rpm at 28° C. 24 h later, NO2− production was assessed. For this, the samples were first 200 times diluted by pipetting 1.5 μl of samples into 300 μl of fresh growth medium in intermediate plates (Cat. No. 353077, Falcon® 96-well Clear Round Bottom Microplate, Corning®), to then mix 15 μl of the diluted samples with 15 μl Griess reagent in the wells of a transparent, flat bottom 384-well plate (Cat. No. X^7001, Low Profile Microplate, Molecular Devices) that was measured spectrophotometrically at 540 nm (EnVision, Perkin Elmer®).
as §3
IC50 values, that is the concentration that inhibits 50% of the nitrification, were calculated after fitting a logistic curve to 8-point dose response data, using doses between 2 and 100 μM with 1.75 fold steps. […]
Regarding `CSC1=NCCO1` [Example 41], the IC50 is over 100 µM.

Still in this experiment, the particulars now being: Nitrosomonas europaea, 24 h, read-out: Nitrification (%) at tested concentration (0 = maximum activity).
Regarding `CSC1=NCCO1` [Example 41], the activity at 100 µM stood at 88%.

Still in this experiment, the particulars now being: Nitrosomonas europaea; 8-point dose response, 2 to 100 μM; read-out: IC50.
On to `Oc1csc(=S)[nH]1` [Example 31], for which the IC50 is 14 µM.

Turning to `CSc1nc(Br)cs1` [Example 32], the IC50 was under 100 µM.

Turning to `CSc1ncc(Br)s1` [Example 33], the IC50 is over 100 µM.

On to `S=c1[nH]c(C2CC2)cs1` [Example 34], for which the 50% inhibitory concentration (IC50) was 52 µM.

As for `Cc1[nH]c(=S)sc1C` [Example 35], the IC50 was 43 µM.

For the compound `S=c1[nH]c(C2CCCCC2)cs1` [Example 36], the IC50 amounted to 16 µM.

Consider `NCCCSc1nccs1` [Example 37], for which the IC50 was over 100 µM.

With `Cc1csc(SC2CCCCC2)n1` [Example 38], the IC50 was over 100 µM.

In the case of `CSc1ncco1` [Example 39], the IC50 was determined as 26 µM.

As for `S=c1[nH]cco1` [Example 40], the IC50 is 4 µM.

Regarding `S=C1NC(c2ccccc2)CO1` (stereo not drawn) [Example 42], the IC50 turned out to be 68 µM.

With `CC1(C)COC(=S)N1` [Example 43], the IC50 was 7 µM.

On to `C=CC1CNC(=S)O1` (stereo not drawn) [Example 44], for which the IC50 came out at 2 µM.

The same experiment, now with this note: Nitrosomonas europaea; tested concentration 100 μM; 24 h; normalized to DMSO (100%) and 100 μM DMP (0%); read-out: Nitrification (%) at tested concentration (0 = maximum activity).
On to `Oc1csc(=S)[nH]1` [Example 31], for which the activity at 100 µM came out at 12%.

As to `CSc1nc(Br)cs1` [Example 32], the activity at 100 µM turned out to be 46%.

As for `CSc1ncc(Br)s1` [Example 33], the activity at 100 µM was 68%.

As to `S=c1[nH]c(C2CC2)cs1` [Example 34], the activity at 100 µM was 0%.

Regarding `Cc1[nH]c(=S)sc1C` [Example 35], the activity at 100 µM was 12%.

Regarding `S=c1[nH]c(C2CCCCC2)cs1` [Example 36], the activity at 100 µM came to 0%.

Take `NCCCSc1nccs1` [Example 37]: the activity at 100 µM turned out to be 58%.

As for `Cc1csc(SC2CCCCC2)n1` [Example 38], the activity at 100 µM came to 92%.

As to `CSc1ncco1` [Example 39], the activity at 100 µM is 22%.

For the compound `S=c1[nH]cco1` [Example 40], the activity at 100 µM came out at 0%.

Take `S=C1NC(c2ccccc2)CO1` (stereo not drawn) [Example 42]: the activity at 100 µM amounted to 40%.

With `CC1(C)COC(=S)N1` [Example 43], the activity at 100 µM is 0%.

`C=CC1CNC(=S)O1` (stereo not drawn) [Example 44]: the activity at 100 µM stood at 0%.

The test system of the next experiment is Moorslede soil. The experiment in a line: In soil nitrification inhibition assay, Moorslede soil. The conditions noted are these: soil, 120 h; 50 μM; 5 days; read-out: % Nitrification inhibition in soil (5 days of incubation, Moorslede soil) at indicated concentration. Here is the method: Top layer (0 to 10 cm) soil samples were collected from different fields in Belgium (Merelbeke and Moorslede). Vegetation on the field trial was removed and samples were taken from different plots. All soil samples were mixed and sieved (mesh size 2.8 mm) to filter large debris and homogenize soil. The soil was stored at 5° C. in plastic containers covered with Saran foil to prevent changes in microbial community composition and to maintain the original soil water content.
Soil water content was determined by drying 20 g soil for 48 h in a 60° C. oven and measuring weight before and after drying. Based on the soil water content (±20%), compound solutions were prepared so that addition of 200 μl compound and 200 μl NH4Cl solution would result in a final compound concentration of 50 μM and a final NH4^+ concentration of 10 mM. Per treatment, 5 small pots were filled with 20 g soil. Next, the soil was treated first with the respective compound solution and then with the NH4Cl solution. Per tray, positive (50 μM DMP) and negative controls (DMSO) were included. Pots were incubated at 21° C. (6 a.m. to 10 p.m. light) for 7 days. Demineralized water was added to the soil every 2 to 3 days to a soil weight of 20 g. In the end, each sample of 20 g soil was dissolved in 100 ml 1M KCl and shaken for 1 hour, followed by filtration through Whatmann® paper. The filtrate was used to measure pH, NH4^+ and NO3− concentrations.
A set of examples was tested in the same conditions (Moorslede soil, 3 days of incubation) at a concentration of 50 μM.
Another set of examples was tested in different concentrations in Moorslede soil as well, and were sampled after 5 days.
The effect of 3H-1,3-thiazole-2-thione was tested in soil in accordance with the test described above in section 3.3.
As to `CSc1ncco1` [Example 39], the inhibition at 50 µM stood at 62%.
